These results are taken from PMC4325472, “An Expedient Synthesis, Acetylcholinesterase Inhibitory Activity, and Molecular Modeling Study of Highly Functionalized Hexahydro-1,6-naphthyridines” (BioMed Research International, 2015).

T1 sequence (O42275 24-633): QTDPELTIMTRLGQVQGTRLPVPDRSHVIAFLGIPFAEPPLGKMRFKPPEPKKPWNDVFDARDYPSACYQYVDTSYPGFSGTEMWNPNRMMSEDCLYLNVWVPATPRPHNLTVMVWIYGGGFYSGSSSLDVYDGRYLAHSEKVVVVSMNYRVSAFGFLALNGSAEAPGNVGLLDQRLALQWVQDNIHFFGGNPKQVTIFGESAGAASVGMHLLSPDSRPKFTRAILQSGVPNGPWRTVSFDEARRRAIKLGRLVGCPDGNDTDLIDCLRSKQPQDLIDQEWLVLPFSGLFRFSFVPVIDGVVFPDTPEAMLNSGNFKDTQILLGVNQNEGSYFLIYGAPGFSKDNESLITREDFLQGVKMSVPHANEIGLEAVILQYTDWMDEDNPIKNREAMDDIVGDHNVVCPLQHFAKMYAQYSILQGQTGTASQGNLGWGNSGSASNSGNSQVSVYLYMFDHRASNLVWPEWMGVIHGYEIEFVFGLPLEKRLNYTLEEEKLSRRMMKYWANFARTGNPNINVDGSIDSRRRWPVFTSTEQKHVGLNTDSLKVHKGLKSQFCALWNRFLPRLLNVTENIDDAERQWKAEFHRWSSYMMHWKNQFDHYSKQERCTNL

The first assay addresses T1, acetylcholinesterase enzyme from Electrophoruselectricus (AChE enzyme from electric eel) (Electrophorus electricus, UniProt O42275).
T1 construct: purchased Sigma
Put plainly: biochemical.
Settings: not given
The procedure:
Cholinesterase inhibitory activity of the synthesized compounds was evaluated using the Ellman's microplate assay. For acetylcholinesterase (AChE) inhibitory assay, 140 μL of 0.1 M sodium phosphate buffer (pH 8) was first added to a 96-well microplate followed by 20 μL of test samples and 20 μL of 0.09 units/mL acetylcholinesterase enzyme from Electrophoruselectricus (Sigma). After 15 minutes of incubation at 25°C, 10 μL of 10 mM 5,5′-dithiobis-2-nitrobenzoic acid (DTNB) was added into each well followed by 10 μL of acetylthiocholine iodide (14 mM). At 30 minutes after the initiation of enzymatic reaction, absorbance of the colored end-product was measured using BioTek Power Wave X 340 Microplate Spectrophotometer at 412 nm.
Galantamine was used as positive control. Test samples and galantamine were prepared in DMSO at an initial concentration of 1 mg/mL (1000 ppm). The concentration of DMSO in final reaction mixture was 1%.
The initial screening was carried out at 10 μg/mL of test samples in 1% DMSO and each test was conducted in triplicate. Absorbencies of the test samples were corrected by subtracting the absorbance of their respective blank. Percentage enzyme inhibition is calculated using the following formula: (1) Percentage of inhibition =[…]/Absorbance of control×100. Subsequently, the determination of IC50 was carried out using a set of five concentrations.
All newly synthesized 1,6-naphthyridines were evaluated in vitro for their inhibitory potential against AChE enzyme from electric eel using colorimetric Ellman's method (Table 1).
On to `N#Cc1c(-c2cccc([N+](=O)[O-])c2)c2c([nH]c1=O)/C(=C/c1cccc([N+](=O)[O-])c1)CNC2` [4g, (E)-8-(3-Nitrobenzylidene)-4-(3-nitrophenyl)-2-oxo-1,2,5,6,7,8-hexahydro-1,6-naphthyridine-3-carbonitrile], for which half-maximal inhibition (IC50) required 16.86 ± 0.02 µM.

The assay is the same for the next values; noted with them: Ellman's method, AChE from electric eel, triplicate, five concentrations; read-out: AChE inhibition (IC50 ± SD).
`N#Cc1c(-c2ccc(Cl)cc2)c2c([nH]c1=O)/C(=C/c1ccc(Cl)cc1)CNC2` [4i, (E)-8-(4-Chlorobenzylidene)-4-(4-chlorophenyl)-2-oxo-1,2,5,6,7,8-hexahydro-1,6-naphthyridine-3-carbonitrile]: the IC50 (as a rule, the midpoint of a concentration-inhibition curve) was found to be 3.86 ± 0.02 µM.

As for `N#Cc1c(-c2ccc(F)cc2)c2c([nH]c1=O)/C(=C/c1ccc(F)cc1)CNC2` [4j, (E)-8-(4-Fluorobenzylidene)-4-(4-fluorophenyl)-2-oxo-1,2,5,6,7,8-hexahydro-1,6-naphthyridine-3-carbonitrile], the IC50 is 14.16 ± 0.02 µM. Still for that read-out and setting: with `N#Cc1c(-c2ccccc2)c2c([nH]c1=O)/C(=C/c1ccccc1)CNC2` [4a, (E)-8-Benzylidene-2-oxo-4-phenyl-1,2,5,6,7,8-hexahydro-1,6-naphthyridine-3-carbonitrile] the figure was 11.18 ± 0.02 µM. The same measure, in the same setting: the same measure for `N#Cc1c(-c2cccc3ccccc23)c2c([nH]c1=O)/C(=C/c1cccc3ccccc13)CNC2` [4k, (E)-4-(Naphthalen-1-yl)-8-(naphthalen-1-ylmethylene)-2-oxo-1,2,5,6,7,8-hexahydro-1,6-naphthyridine-3-carbonitrile]: 6.86 ± 0.02 µM. Same read-out and setting: with `Cc1ccccc1/C=C1\CNCc2c1[nH]c(=O)c(C#N)c2-c1ccccc1C` [4b, (E)-8-(2-Methylbenzylidene)-2-oxo-4-(o-tolyl)-1,2,5,6,7,8-hexahydro-1,6-naphthyridine-3-carbonitrile] the figure was 7.2 ± 0.02 µM. As to `N#Cc1c(-c2ccc(Cl)cc2Cl)c2c([nH]c1=O)/C(=C/c1ccc(Cl)cc1Cl)CNC2` [4f, (E)-8-(2,4-Dichlorobenzylidene)-4-(2,4-dichlorophenyl)-2-oxo-1,2,5,6,7,8-hexahydro-1,6-naphthyridine-3-carbonitrile], the IC50 is 24.72 ± 0.01 µM. On the same count and under the same terms, the same measure for `N#Cc1c(-c2ccccc2Cl)c2c([nH]c1=O)/C(=C/c1ccccc1Cl)CNC2` [4c, (E)-8-(2-Chlorobenzylidene)-4-(2-chlorophenyl)-2-oxo-1,2,5,6,7,8-hexahydro-1,6-naphthyridine-3-carbonitrile]: 15.21 ± 0.1 µM. In the case of `COc1ccccc1/C=C1\CNCc2c1[nH]c(=O)c(C#N)c2-c1ccccc1OC` [4e, (E)-8-(2-Methoxybenzylidene)-4-(2-methoxyphenyl)-2-oxo-1,2,5,6,7,8-hexahydro-1,6-naphthyridine-3-carbonitrile], the half-maximal inhibitory concentration (IC50) was 2.12 ± 0.02 µM. In the case of `N#Cc1c(-c2ccccc2Br)c2c([nH]c1=O)/C(=C/c1ccccc1Br)CNC2` [4d, (E)-8-(2-Bromobenzylidene)-4-(2-bromophenyl)-2-oxo-1,2,5,6,7,8-hexahydro-1,6-naphthyridine-3-carbonitrile], the IC50 came to 18.16 ± 0.02 µM. As to `Cc1ccc(/C=C2\CNCc3c2[nH]c(=O)c(C#N)c3-c2ccc(C)cc2)cc1` [4h, (E)-8-(4-Methylbenzylidene)-2-oxo-4-(p-tolyl)-1,2,5,6,7,8-hexahydro-1,6-naphthyridine-3-carbonitrile], the half-maximal inhibitory concentration (IC50) came out at 7.16 ± 0.02 µM.
